# Measured values: ChEMBL document CHEMBL5131488, “Design and synthesis of pyrido[2,3-d]pyrimidine derivatives for a novel PAC1 receptor antagonist” (Eur J Med Chem, 2022)
# The source made the active and inactive calls. The calls are words filed in the database; no cut-off is given here.
# Columns and labels:
# [1] = biological target: T1, Pituitary adenylate cyclase-activating polypeptide type I receptor (Homo sapiens, UniProt P41586); assay: Antagonist activity at PAC-1 receptor (unknown origin) expressed in CHO cells assessed as inhibition of PACAP-induced CREB phosphorylation at 1 nM pretreated for 30 mins followed by PACAP stimulation for 30 mins by western blot analysis; assay type: cell-based; conditions: filed as antagonist, time 60.0 min
# Target sequence in this assay (P41586 21-468 limits assumed): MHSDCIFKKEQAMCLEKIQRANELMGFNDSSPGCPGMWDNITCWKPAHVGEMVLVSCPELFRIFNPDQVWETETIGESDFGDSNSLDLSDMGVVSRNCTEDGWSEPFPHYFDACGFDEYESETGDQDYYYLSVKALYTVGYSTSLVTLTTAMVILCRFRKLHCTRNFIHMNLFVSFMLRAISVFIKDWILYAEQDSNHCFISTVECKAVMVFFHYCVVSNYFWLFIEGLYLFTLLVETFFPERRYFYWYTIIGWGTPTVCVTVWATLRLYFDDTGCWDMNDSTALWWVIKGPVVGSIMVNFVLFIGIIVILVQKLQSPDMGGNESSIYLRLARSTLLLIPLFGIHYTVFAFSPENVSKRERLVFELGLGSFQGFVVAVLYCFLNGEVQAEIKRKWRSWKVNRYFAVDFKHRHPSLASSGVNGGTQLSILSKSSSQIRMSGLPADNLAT
# [2] = Tmax in C57BL/6J mouse at 30 mg/kg, po measured up to 24 hrs by LC-MS/MS analysis; assay type: ADME, organism-based; conditions: in vivo
# [3] = Metabolic stability in mouse liver microsomes assessed as parent compound remaining in presence of NADPH at 0.5 uM measured after 60 mins by LC-MS/MS analysis; assay type: ADME, Microsome; conditions: read-out: Stability
# [4] = system: Mus musculus; assay: Antiallodynic activity in ddY mouse assessed as inhibition of PACAP-evoked mechanical allodynia at 10 to 100 pmol administered via IT as single dose and measured after 14 days; assay type: functional, organism-based; conditions: dose 10-100 pmol, time 14.0 day
# [5] = Metabolic stability in mouse liver microsomes assessed as parent compound remaining in presence of NADPH at 0.5 uM measured after 10 mins by LC-MS/MS analysis; assay type: ADME, Microsome; conditions: read-out: Stability
# [6] = Metabolic stability in human liver microsomes assessed as parent compound remaining in presence of NADPH at 0.5 uM measured after 60 mins by LC-MS/MS analysis; assay type: ADME, Microsome; conditions: read-out: Stability
# [7] = Permeability of the compound across apical to basolateral side in human Caco-2 cells at 25 uM incubated for 2 hrs by LC/MS/MS analysis; assay type: ADME, cell-based; conditions: read-out: permeability
# [8] = biological target: T1, Pituitary adenylate cyclase-activating polypeptide type I receptor; assay: Antagonist activity at PAC-1 receptor (unknown origin) expressed in CHO cells assessed as inhibition of PACAP-induced increase in intracellular cAMP level pretreated for 30 mins followed by PACAP stimulation measured after 1 hr by cAMP-Glo assay; assay type: cell-based; conditions: for Activity: filed as antagonist, time 90.0 min, DDE = dose-dependent effect
# [9] = Metabolic stability in human liver microsomes assessed as parent compound remaining in presence of NADPH at 0.5 uM measured after 10 mins by LC-MS/MS analysis; assay type: ADME, Microsome; conditions: read-out: Stability
# [10] = Plasma protein binding in human measured after 5 hrs by LC-MS/MS analysis; assay type: ADME, cell-free; conditions: read-out: PPB (converted)
# [11] = Half life in C57BL/6J mouse at 30 mg/kg, ip measured up to 24 hrs by LC-MS/MS analysis; assay type: ADME, organism-based; conditions: in vivo
# [12] = system: Mus musculus; assay: Inhibition of PACAP-induced aversive behaviour in it dosed ddY mouse administered as single dose and measured for 30 mins; assay type: functional, organism-based; conditions: dose 10-100 pmol, DDE = dose-dependent effect
# [13] = Aqueous solubility of the compound in phosphate buffered saline at 100 uM at pH 7.4 by HPLC analysis; assay type: physicochemical
# [14] = Cmax in C57BL/6J mouse at 30 mg/kg, ip measured up to 24 hrs by LC-MS/MS analysis; assay type: ADME, organism-based; set-up: time < 24 hrs, dose 30 mg/kg, route ip; conditions: in vivo
# [15] = system: Mus musculus; assay: Antiallodynic activity in ddY mouse assessed as inhibition of SNL-induced mechanical allodynia at 30 mg/kg, ip administered once daily for 7 days and measured at 1 hr post-last dosage; assay type: functional, organism-based; conditions: time 7.0 day
# [16] = Plasma protein binding in mouse measured after 5 hrs by LC-MS/MS analysis; assay type: ADME, cell-free; conditions: read-out: PPB (converted)
# [17] = Tmax in C57BL/6J mouse at 30 mg/kg, ip measured up to 24 hrs by LC-MS/MS analysis; assay type: ADME, organism-based; conditions: in vivo
# [18] = system: Mus musculus; assay: Antiallodynic activity in ddY mouse assessed as inhibition of spinal nerve ligation-evoked mechanical allodynia at 10 pmol administered via IT as single dose and measured after 3 hrs; assay type: functional, organism-based
# [19] = Cmax in C57BL/6J mouse at 30 mg/kg, po measured up to 24 hrs by LC-MS/MS analysis; assay type: ADME, organism-based; set-up: dose 30 mg/kg, time < 24 hrs, route po; conditions: in vivo
# [20] = system: Mus musculus; assay: Antiallodynic activity in ddY mouse assessed as inhibition of spinal nerve ligation-evoked mechanical allodynia at 10 pmol administered via IT as single dose and measured after 2 to 4 hrs; assay type: functional, organism-based; conditions: time 2-4 hrs
# [21] = Half life in C57BL/6J mouse at 30 mg/kg, po measured up to 24 hrs by LC-MS/MS analysis; assay type: ADME, organism-based; conditions: in vivo
# [22] = system: Mus musculus; assay: Antiallodynic activity in ddY mouse assessed as inhibition of SNL-induced mechanical allodynia at 30 mg/kg, ip administered once daily for 7 days and measured for 3 days after termination of repetitive drug administration; assay type: functional, organism-based; conditions: time 7.0 day
smiles,measurement,setting,value
C=CCOc1cccc(C2CC(=O)Nc3nc(N)[nH]c(=O)c32)c1 (centres undefined),Activity,[1],Active
CCCOc1cccc(C2CC(=O)Nc3nc(N)[nH]c(=O)c32)c1 (centres undefined),Activity,[1],Active
Nc1nc2c(c(=O)[nH]1)C(c1cccc(Br)c1)CC(=O)N2 (centres undefined),Activity,[1],Active
CCc1cccc(C2CC(=O)Nc3nc(N)[nH]c(=O)c32)c1 (centres undefined),Activity,[1],Active
CCOc1cc(C2CC(=O)Nc3nc(N)[nH]c(=O)c32)ccc1OC (centres undefined),Activity,[1],Active
CCOc1ccc(C2CC(=O)Nc3nc(N)[nH]c(=O)c32)cc1Cl (centres undefined),Activity,[1],Active
C=CCOc1ccc(C2CC(=O)Nc3nc(N)[nH]c(=O)c32)cc1OC (centres undefined),Activity,[1],Active
same,Tmax,[2],0.5 h
same,"remaining at 1 h, 0.5 µM",[3],94%
same,Activity,[4],Active
same,"remaining at 10 min, 0.5 µM",[5],96%
same,"remaining at 1 h, 0.5 µM",[6],91%
same,"Papp A→B at 2 h, 25 µM",[7],0.3 ×10⁻⁶ cm/s
same,IC50,[8],1.48 nM
same,Activity,[8],Dde
same,"remaining at 10 min, 0.5 µM",[9],93%
same,fraction unbound at 5 h,[10],0.304
same,half-life,[11],2.19 h
same,inhibition,[12],Dde
same,solubility at 100 µM,[13],92.2 µM
same,Cmax,[14],14.3 µM
same,Activity,[15],Active
same,fraction unbound at 5 h,[16],0.505
same,Tmax,[17],0.67 h
same,Activity,[18],Active
same,Cmax,[19],0.79 µM
same,Activity,[20],Active
same,half-life,[21],1.72 h
Nc1nc2c(c(=O)[nH]1)C(c1ccc(F)c(F)c1)CC(=O)N2 (centres undefined),Activity,[1],Active
Nc1nc2c(c(=O)[nH]1)C(c1cccc(Cl)c1)CC(=O)N2 (centres undefined),Activity,[1],Active
CCCOc1ccc(C2CC(=O)Nc3nc(N)[nH]c(=O)c32)cc1OC (centres undefined),Activity,[1],Active
CCOc1ccc(C2CC(=O)Nc3nc(N)[nH]c(=O)c32)cc1C (centres undefined),Activity,[1],Active
CCOc1ccc(C2CC(=O)Nc3nc(N)[nH]c(=O)c32)cc1OC (centres undefined),Activity,[1],Active
CCCOc1cc(C2CC(=O)Nc3nc(N)[nH]c(=O)c32)ccc1OC (centres undefined),Activity,[1],Active
CCCCc1cccc(C2CC(=O)Nc3nc(N)[nH]c(=O)c32)c1 (centres undefined),Activity,[1],Active
CCCc1cccc(C2CC(=O)Nc3nc(N)[nH]c(=O)c32)c1 (centres undefined),Activity,[1],Active
CCOc1cccc(C2CC(=O)Nc3nc(N)[nH]c(=O)c32)c1 (centres undefined),Activity,[1],Active
same,Tmax,[2],0.25 h
same,"remaining at 1 h, 0.5 µM",[3],84%
same,Activity,[4],Active
same,"remaining at 10 min, 0.5 µM",[5],92%
same,"remaining at 1 h, 0.5 µM",[6],93%
same,"Papp A→B at 2 h, 25 µM",[7],0.3 ×10⁻⁶ cm/s
same,"remaining at 10 min, 0.5 µM",[9],93%
same,fraction unbound at 5 h,[10],0.345
same,half-life,[11],2.29 h
same,inhibition,[12],Dde
same,solubility at 100 µM,[13],27.9 µM
same,Cmax,[14],29.3 µM
same,fraction unbound at 5 h,[16],0.474
same,Tmax,[17],0.25 h
same,Cmax,[19],1.93 µM
same,half-life,[21],1.32 h
COc1cccc(C2CC(=O)Nc3nc(N)[nH]c(=O)c32)c1 (centres undefined),Activity,[1],Active
Nc1nc2c(c(=O)[nH]1)C(c1cccc(OC(F)(F)F)c1)CC(=O)N2 (centres undefined),Activity,[1],Active
same,Tmax,[2],0.83 h
same,"remaining at 1 h, 0.5 µM",[3],93%
same,Activity,[4],Active
same,"remaining at 10 min, 0.5 µM",[5],91%
same,"remaining at 1 h, 0.5 µM",[6],92%
same,"Papp A→B at 2 h, 25 µM",[7],1.6 ×10⁻⁶ cm/s
same,IC50,[8],0.11 nM
same,Activity,[8],Dde
same,"remaining at 10 min, 0.5 µM",[9],95%
same,fraction unbound at 5 h,[10],0.11
same,half-life,[11],2.4 h
same,inhibition,[12],Dde
same,solubility at 100 µM,[13],93.3 µM
same,Cmax,[14],40.6 µM
same,Activity,[22],Active
same,Activity,[15],Active
same,fraction unbound at 5 h,[16],0.298
same,Tmax,[17],1 h
same,Activity,[18],Active
same,Cmax,[19],20.8 µM
same,Activity,[20],Active
same,half-life,[21],2.75 h
CCOc1ccc(C2CC(=O)Nc3nc(N)[nH]c(=O)c32)cc1OCC (centres undefined),Activity,[1],Active
CCOc1ccc(C2CC(=O)Nc3nc(N)[nH]c(=O)c32)cc1Br (centres undefined),Activity,[1],Active
